Columns and labels:
[1] = test system: dispersed rat pituitary cell superfusion system; test: LH release in dispersed rat pituitary cell superfusion system (agonistic activity); assay type: cell-based; conditions: Table 1; peptide infused 3 min, LH released compared to 3 nM LHRH
Description: *LH responses to the analogues were determined in dispersed rat pituitary
cell superfusion system.

[2] = target: T1, membrane receptors of pituitary of male rats (Rattus norvegicus, UniProt P30969); test: Binding affinity for membrane receptors of rat pituitary using 125I-labeled [D-Trp6]LHRH
T1 construct: from tissue; host or cells: pituitary of male rats (membranes)
T1 sequence (P30969 1-327): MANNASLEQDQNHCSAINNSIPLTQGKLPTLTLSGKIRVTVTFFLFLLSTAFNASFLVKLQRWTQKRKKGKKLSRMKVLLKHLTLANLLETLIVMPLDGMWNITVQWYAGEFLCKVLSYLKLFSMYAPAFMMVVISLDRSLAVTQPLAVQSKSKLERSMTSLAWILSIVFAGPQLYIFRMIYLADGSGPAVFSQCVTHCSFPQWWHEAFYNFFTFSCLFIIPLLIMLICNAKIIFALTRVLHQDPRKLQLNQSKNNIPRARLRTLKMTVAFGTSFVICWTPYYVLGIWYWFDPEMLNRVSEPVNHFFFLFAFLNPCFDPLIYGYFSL
Description: (§1) This is determined by using labelled LHRH and [D-Trp^6 ]LHRH. The assay is carried out similarly to that described by T. Kadar et al., Proc. Natl. Acad. Sci. USA, 85, 890-894 (1988).
(§2) Table 2 presents the antiovulatory activity of the claimed compounds having LHRH-inhibiting properties. The inhibitory action was determined in vivo, in 4-day cycling rats as described [A. Corbin and C. W. Beattie, Endocr. Res. Commun., 2, 1-23 (1975)]. Affinities of the claimed compounds to membrane receptors of rat pituitary and human breast cancer cells are also given in Tables 1 and 2 as determined by using [^125 I,D-Trp^6 ]LHRH.
(§3) **Affinity constants of the peptides for the first receptor class (i.e.
(§4) for high affinity binding sites) of pituitary of male rats and human
(§5) breast cancer cells, respectively, as determined by using ^125
(§6) Ilabeled [DTrp^6 ]LHRH.
(§7) breast cancer cells, respectively, were determined by using ^125

[3] = target: T2, membrane receptors of human breast cancer cells (Homo sapiens, UniProt P30968); test: Binding affinity for membrane receptors of human breast cancer cells using 125I-labeled [D-Trp6]LHRH
T2 construct: endogenous in cells; host or cells: human breast cancer cells (membranes)
T2 sequence (P30968 1-328): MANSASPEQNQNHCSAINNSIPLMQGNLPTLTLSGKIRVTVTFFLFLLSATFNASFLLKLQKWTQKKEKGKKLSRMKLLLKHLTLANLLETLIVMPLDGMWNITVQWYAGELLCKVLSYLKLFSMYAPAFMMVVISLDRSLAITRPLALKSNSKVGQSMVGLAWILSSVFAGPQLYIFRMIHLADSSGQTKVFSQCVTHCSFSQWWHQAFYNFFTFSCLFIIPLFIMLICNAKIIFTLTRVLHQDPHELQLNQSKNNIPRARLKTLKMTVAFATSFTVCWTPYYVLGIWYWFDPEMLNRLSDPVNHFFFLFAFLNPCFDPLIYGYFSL
Description: as §1, §2, §3, §4, §5, §6, §7

4-day cycling rats = test: In vivo antiovulatory activity in 4-day cycling rats; parameters: species or system rat
Description: This activity of the peptides is determined in 4-day-cycling rats as described [A. Corbin and C. W. Beattie, Endocr. Res. Commun., 2, 1-23 (1975)].
as §2
*LHRH-inhibiting potencies were assayed in 4day cyclic rats.

[4] = Table 1, high affinity binding sites
[5] = Table 2, high affinity binding sites

| Substance | Binding affinity, Ka1, for membrane receptors of pituitary [2, 4] [nM⁻¹] | Binding affinity, Ka1, for membrane receptors of cancer cells [3, 4] [nM⁻¹] | Binding affinity, Ka1, for membrane receptors of pituitary [2, 5] [nM⁻¹] | Binding affinity, Ka1, for membrane receptors of cancer cells [3, 5] [nM⁻¹] | Hormonal activity, LH responses rel. to LHRH (= 1) [1] | % Blockade of ovulation (4-day cycling rats; Dose 10 μg/rat) [%] | % Blockade of ovulation (4-day cycling rats; Dose 3 μg/rat) [%] |
| --- | --- | --- | --- | --- | --- | --- | --- |
| pGlu-His-Trp-Ser-Tyr-D-Lys[(Cu^++)(CISAL)2 (DL-A2 pr)]-Leu-Arg-Pro-Gly-NH2 [Example IX] | 8.625 | 3.995 |  |  | 10 |  |  |
| Ac-D-Nal(2)-D-Phe(4 Cl)-D-Trp-Ser-Arg-D-Lys[(Cu^++)(POL)2 (DL-A2 pr)]-Leu-Arg-Pro-D-Ala-NH2 [Example XXIII] |  |  | 7.622 | 3.408 |  | 40 |  |
| Ac-D-Nal(2)-D-Phe(4Cl)-D-Trp-Ser-Arg-D-Lys[(Cu^++)(POLP)2 (DL-A2 pr)]-Leu-Arg-Pro-D-Ala-NH2 [Example XXII] |  |  | 2.901 | 1.337 |  | 60 |  |
| pGlu-His-Trp-Ser-Tyr-D-Lys[(Cu^++)(POL)2 (DL-A2 bu)]-Leu-Arg-Pro-Gly-NH2 [XXV] | 6.405 | 3.141 |  |  | 5.5 |  |  |
| Ac-D-Nal(2)-D-Phe(4Cl)-D-Pal(3)-Ser-Arg-D-Lys[(Cu^++)(SAL)2 (A2 bu-Eac)]-Leu-Arg-Pro-D-Ala-NH2 [XXVIII] |  |  |  | 0.192 |  |  |  |

Second part, led by results:

| Binding affinity, Ka1, for membrane receptors of pituitary [2, 4] [nM⁻¹] | Binding affinity, Ka1, for membrane receptors of cancer cells [3, 4] [nM⁻¹] | Binding affinity, Ka1, for membrane receptors of pituitary [2, 5] [nM⁻¹] | Binding affinity, Ka1, for membrane receptors of cancer cells [3, 5] [nM⁻¹] | Substance | Hormonal activity, LH responses rel. to LHRH (= 1) [1] | % Blockade of ovulation (4-day cycling rats; Dose 10 μg/rat) [%] | % Blockade of ovulation (4-day cycling rats; Dose 3 μg/rat) [%] |
| --- | --- | --- | --- | --- | --- | --- | --- |
| 5.589 | 1.628 |  |  | pGlu-His-Trp-Ser-Tyr-D-Lys[(Cu^++)(SAL)2 (DL-A2 bu)]-Leu-Arg-Pro-Gly-NH2 [XIV] | 25 |  |  |
|  |  | 8.676 | 4.418 | Ac-D-Nal(2)-D-Phe(4Cl)-D-Trp-Ser-Arg-D-Lys[(Ni^++)(SAL)2 (DL-A2 pr)]-Leu-Arg-Pro-D-Ala-NH2 [Example XV] |  |  | 20 |
| 9.710 | 5.234 |  |  | [D-Lys[(Ni^++)(SAL)2(L-A2 pr)]^6 ]LHRH [VIIIA] | 12 |  |  |
|  |  | 9.183 | 4.951 | Ac-D-Nal(2)-D-Phe(4Cl)-D-Trp-Ser-Arg-D-Lys[(Cu^++)(SAL)2 (DL-A2 pr)]-Leu-Arg-Pro-D-Ala-NH2 [XII] |  |  | 20 |
|  |  |  | 2.152 | Ac-D-Nal(2)-D-Phe(4Cl)-D-Pal(3)-Ser-Arg-D-Lys[(PtCl2)-A2 bu-Eac)]-Leu-Arg-Pro-D-Ala-NH2 [XXVII] |  |  |  |

Reference: US5258492A, “LHRH analogues with cytotoxic moieties at the sixth position” (The Administrators of the Tulane Educational Fund, priority 1991, dated 1993)
